Source: patent publication US20210236476A1, “METHODS OF TREATING CANCER WITH SMALL MOLECULE PD-L1 INHIBITORS” (CHEMOCENTRYX, INC., priority 2018, published 2021)
pIC50: −log10 of the molar value.

target: T1, human PD-L1 / human PD-1 interaction (Homo sapiens, UniProt Q9NZQ7); test: ELISA of PD-1/PD-L1 interaction; format: binding
T1 construct: purchased R&D (PD-L1); ACRO Biosystems (PD-1, biotin)
Protocol: The activity of Compound 1.041 was assessed with an ELISA assay assessing the direct binding of recombinant PD-1 and PD-L1 proteins (FIG. 1A), a dimerization ELISA assay assessing the direct binding/dimerization of recombinant PD-L1 proteins (FIG. 1B), a cell based assay measuring the downstream signaling following the interaction of PD-1 and PD-L1 using a Luciferase reporter assay with cell lines overexpressing PD-1 and PD-L1 (FIG. 1C), and a mixed lymphocyte reaction assay measuring the functional outcome of upregulation of IFNg secretion, using allogenic primary human immune cells (FIG. 1D). Briefly, the mixed lymophocyte reaction assay was performed as follows: Dendritic cells and CD4+T Cells from unmatched donors were cultured together for 5 days in 96 well-flat bottom plates. Test compound was added as indicated at starting concentration of 1 μM with 1:4 dilutions with DMSO. Supernatants were harvested after 5 days of incubation and detection of human IFNg was performed by ELISA. […]
96 Well plates were coated with 1 μg/mL of human PD-L1 (obtained from R&D) in
PBS overnight at 4° C. The wells were then blocked with 2% BSA in PBS (WN) with 0.05% TWEEN-20 for 1 hour at 37° C. The plates were washed 3 times with PBS/0.05% TWEEN-20 and the compounds were serial diluted (1:5) in dilution medium and added to the ELISA plates. Human PD-1 and biotin 0.3μg/mL (ACRO Biosystems) were added and incubated for 1 hour at 37° C. then washed 3 times with PBS/0.05% TWEEN-20. A second block was performed with 2% BSA in PBS (WN)/0.05% TWEEN-20 for 10 min at 37° C. and was washed 3 times with PBS/0.05% TWEEN-20. Streptavidin—HRP was added for 1 hour at 37° C. then washed 3 times with PBS/0.05% TWEEN-20. TMB substrate was added and reacted for 20 min at 37° C. A stop solution (2 N aqueous H2SO4) was added. The absorbance was read at 450 nm using a micro-plate spectrophotometer.

T1 sequence (Q9NZQ7 19-239 limits assumed): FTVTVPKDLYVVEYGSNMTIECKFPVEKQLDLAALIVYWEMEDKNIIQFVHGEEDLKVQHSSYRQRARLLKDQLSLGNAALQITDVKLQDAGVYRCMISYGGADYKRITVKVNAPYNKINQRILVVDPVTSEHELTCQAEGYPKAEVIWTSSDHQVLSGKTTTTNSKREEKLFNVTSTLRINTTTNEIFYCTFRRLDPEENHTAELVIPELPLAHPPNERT

SMILES	pIC50
Cc1c(OCCCN2CCC(F)CC2)cccc1-c1cccc2c1CC[C@@H]2Oc1cc(OCc2cc(C#N)cc(C#N)c2)c(CN[C@H]2CCC[C@@H]2O)cc1Cl	> 8.30
Cc1c(OCCCN2CC[C@@H](O)C2)cccc1-c1cccc2c1CC[C@@H]2Oc1cc(OCc2cncc(C#N)c2)c(CN[C@H](C(=O)O)[C@@H](C)O)cc1Cl	> 8.30
N#Cc1cncc(COc2cc(O[C@H]3CCc4c(-c5cccc(OCCCN6CCCCC6)c5Cl)cccc43)c(Cl)cc2CNC[C@@H]2CCC(=O)N2)c1	> 8.30
CN1CCC(COc2cccc(-c3cccc4c3CC[C@@H]4Oc3cc(OCc4cncc(C#N)c4)c(CN[C@@H]4CCCC[C@@H]4O)cc3Cl)c2Cl)C1 (stereo partly shown)	> 8.30
N#Cc1cc(C#N)cc(COc2cc(O[C@@H]3c4cccc(-c5cccc(OCCCN6CC(O)C6)c5Cl)c4C[C@@H]3F)c(Cl)cc2CNC[C@H]2CCC(=O)N2)c1	> 8.30
CCOc1cc(O[C@H]2CCc3c(-c4cccc(OCCCN5CCC5(C)C)c4C)cccc32)c(Cl)cc1CN1CC[C@H](C(=O)O)C1	6.30 to 8.30
Cc1c(OCCCN2CCCC2C(C)C)cccc1-c1cccc2c1CC[C@@H]2Oc1cc(OCc2cc(C#N)cc(C#N)c2)c(CN[C@H]2CCC(=O)NC2)cc1Cl (stereo partly shown)	6.30 to 8.30
N#Cc1cncc(COc2cc(O[C@H]3CCc4c(-c5cccc(OCCCN6CC7(CC(O)C7)C6)c5Cl)cccc43)c(Cl)cc2CN[C@H]2CCC[C@@H]2O)c1	> 8.30
Cc1c(OCCCN2CC[C@@H](F)C2)cccc1-c1cccc2c1CC[C@@H]2Oc1cc(OCc2cncc(C#N)c2)c(CN[C@@H]2CCCC[C@@H]2O)cc1Cl	> 8.30
CC(C)N1CCC(COc2cccc(-c3cccc4c3CC[C@@H]4Oc3cc(OCc4cncc(C#N)c4)c(CN[C@H]4CCC(=O)NC4)cc3Cl)c2Cl)C1 (stereo partly shown)	> 8.30
CCOc1cc(O[C@H]2CCc3c(-c4cccc(OCCCN5CCC5(C)C)c4C)cccc32)c(Cl)cc1CNCCO	> 8.30
N#Cc1cncc(COc2cc(O[C@H]3CCc4c(-c5cccc(OCCCN6CC(O)C6)c5Cl)cccc43)c(Cl)cc2CN2CC(O)C2)c1	> 8.30
Cc1c(OCCCN2CC[C@H](O)[C@H](F)C2)cccc1-c1cccc2c1CC[C@@H]2Oc1cc(OCc2cncc(C#N)c2)c(CN[C@H](C(=O)O)[C@@H](C)O)cc1Cl	> 8.30
Cc1c(OCCCN2CCC(O)CC2)cccc1-c1cccc2c1CCC2Oc1cc(OCc2cncc(C#N)c2)c(CN[C@H](C(=O)O)[C@@H](C)O)cc1Cl (stereo partly shown)	> 8.30
N#Cc1cncc(COc2cc(O[C@H]3CCc4c(-c5cccc(OCCCN6CCC(O)CC6)c5Cl)cccc43)c(Cl)cc2CNC[C@@H]2CCC(=O)N2)c1	> 8.30
N#Cc1cncc(COc2cc(O[C@H]3CCc4c(-c5cccc(OCCCN6CC7(CC(F)C7)C6)c5Cl)cccc43)c(Cl)cc2CN[C@@H]2CCCC[C@@H]2O)c1	> 8.30
N#Cc1cncc(COc2cc(O[C@H]3CCc4c(-c5cccc(OCCCN6CCC(F)CC6)c5Cl)cccc43)c(Cl)cc2CN2CC3(C2)NC(=O)NC3=O)c1	> 8.30
N#Cc1cncc(COc2cc(O[C@H]3CCc4c(-c5cccc(OCCCN6CC(O)C6)c5Cl)cccc43)c(Cl)cc2CNC[C@@H]2CCC(=O)N2)c1	> 8.30
Cc1c(OCCCN[C@@H]2CCCC[C@@H]2O)cccc1-c1cccc2c1CC[C@@H]2Oc1cc(OCc2cncc(C#N)c2)c(CN[C@H](C(=O)O)[C@@H](C)O)cc1Cl	> 8.30
Cc1c(OCCCN2CCCCC2)cccc1-c1cccc2c1CC[C@@H]2Oc1cc(OCc2cc(C#N)cc(C#N)c2)c(CN[C@@H]2CCCC[C@@H]2O)cc1Cl	> 8.30
Cc1c(OCCCN2CCC(O)CC2)cccc1-c1cccc2c1C[C@H](F)[C@@H]2Oc1cc(OCc2cncc(C#N)c2)c(CN[C@@](C)(CO)C(=O)O)cc1Cl	> 8.30
N#Cc1cncc(COc2cc(O[C@H]3CCc4c(-c5cccc(OCCCN6CC(O)C6)c5Cl)cccc43)c(Cl)cc2CN[C@@H]2CCCC[C@@H]2O)c1	> 8.30
Cc1c(OCCCN2CCC(O)CC2)cccc1-c1cccc2c1C[C@@H](F)[C@@H]2Oc1cc(OCc2cncc(C#N)c2)c(CN[C@@H](CO)C(=O)O)cc1Cl	> 8.30
Cc1c(OCCCN2CCC(C)(F)CC2)cccc1-c1cccc2c1CC[C@@H]2Oc1cc(OCc2cncc(C#N)c2)c(CNC[C@@H]2CCC(=O)N2)cc1Cl	> 8.30
Cc1c(OCCCN2CCC(F)CC2)cccc1-c1cccc2c1CC[C@@H]2Oc1cc(OCc2cncc(C#N)c2)c(CNC[C@H]2CCC(=O)N2)cc1Cl	> 8.30
Cc1c(OCCCN2CCC(F)CC2)cccc1-c1cccc2c1CC[C@@H]2Oc1cc(OCc2cncc(C#N)c2)c(CNCCS(=O)(=O)O)cc1Cl	> 8.30

SMILES	pIC50
Cc1c(OCCCN2CC3(CC(O)C3)C2)cccc1-c1cccc2c1CC[C@@H]2Oc1cc(OCc2cncc(C#N)c2)c(CN[C@H](C(=O)O)[C@@H](C)O)cc1Cl	> 8.30
N#Cc1cncc(COc2cc(O[C@H]3CCc4c(-c5cccc(OCCCN6CCC6)c5Cl)cccc43)c(Cl)cc2CNC[C@@H]2CCC(=O)N2)c1	> 8.30
Cc1c(OCCCN2CCC(O)CC2)cccc1-c1cccc2c1C[C@H](F)[C@@H]2Oc1cc(OCc2cncc(C#N)c2)c(CN[C@H](C(=O)O)[C@@H](C)O)cc1Cl	> 8.30
N#Cc1cncc(COc2cc(O[C@H]3CCc4c(-c5cccc(OCCCN6CCC(F)CC6)c5Cl)cccc43)c(Cl)cc2CNC[C@H]2CCC(=O)N2)c1	> 8.30
Cc1c(OCCCN2CCC(O)CC2)cccc1-c1cccc2c1CC[C@@H]2Oc1cc(OCc2cc(C#N)cc(C#N)c2)c(CN[C@@](C)(CO)C(=O)O)cc1Cl	> 8.30
Cc1c(OCCCN2CCC(F)CC2)cccc1-c1cccc2c1CC[C@@H]2Oc1cc(OCc2cc(C#N)cc(C#N)c2)c(CN[C@@H]2CCC[C@H]2O)cc1Cl	> 8.30
Cc1c(OCCCN2CCC(O)CC2)cccc1-c1cccc2c1CC[C@@H]2Oc1cc(OCc2cncc(C#N)c2)c(CN[C@@H](CNC(=N)N)C(=O)O)cc1Cl	> 8.30
N#Cc1cncc(COc2cc(O[C@H]3CCc4c(-c5cccc(OCCCN6CCC(F)CC6)c5Cl)cccc43)c(Cl)cc2CNC[C@@H]2CCC(=O)N2)c1	> 8.30
CCOc1cc(O[C@H]2CCc3c(-c4cccc(OCCCN5CC(O)C5)c4C)cccc32)c(Cl)cc1CN[C@@H](CO)C(=O)O	> 8.30
Cc1c(OCCCN2CC[C@@H](O)[C@H](F)C2)cccc1-c1cccc2c1CC[C@@H]2Oc1cc(OCc2cncc(C#N)c2)c(CN[C@H](C(=O)O)[C@@H](C)O)cc1Cl	6.30 to 8.30
N#Cc1cncc(COc2cc(O[C@H]3CCc4c(-c5cccc(OCCCN6CCC(F)CC6)c5Cl)cccc43)c(Cl)cc2CNCC2CNC(=O)C2)c1 (stereo partly shown)	> 8.30
CC(C)(O)[C@H](NCc1cc(Cl)c(O[C@H]2CCc3c(-c4cccc(OCCCN5CCC(F)CC5)c4Cl)cccc32)cc1OCc1cncc(C#N)c1)C(=O)O	> 8.30
C[C@@](CO)(NCc1cc(Cl)c(O[C@H]2CCc3c(-c4cccc(OCCCN5CC(O)C5)c4Cl)cccc32)cc1OCc1cncc(C#N)c1)C(=O)O [drawing 79]	> 8.30
Cc1c(OCCCN2CCC(C)CC2)cccc1-c1cccc2c1CC[C@@H]2Oc1cc(OCc2cc(C#N)cc(C#N)c2)c(CNC[C@@H]2CCC(=O)N2)cc1Cl	> 8.30
Cc1c(OCCCNCC(C)(C)O)cccc1-c1cccc2c1CC[C@@H]2Oc1cc(OCc2cncc(C#N)c2)c(CNCC2CCC(=O)N2)cc1Cl (stereo partly shown)	> 8.30
N#Cc1cncc(COc2cc(O[C@H]3CCc4c(-c5cccc(OCCCN6CCC(F)CC6)c5Cl)cccc43)c(Cl)cc2CN2CC[C@@H](O)C2)c1	> 8.30
CCOc1cc(O[C@H]2CCc3c(-c4cccc(OCCCN5CC[C@@H](O)C5)c4C)cccc32)c(Cl)cc1CN[C@H](C(=O)O)[C@@H](C)O	> 8.30
CCOc1cc(O[C@H]2CCc3c(-c4cccc(OCCCN5CC[C@@H](O)C5)c4C)cccc32)c(Cl)cc1CN[C@@H](CO)C(=O)O	> 8.30
Cc1c(OCCCN2CCC(O)CC2)cccc1-c1cccc2c1CC[C@@H]2Oc1cc(OCc2cncc(C#N)c2)c(CN[C@@H](CO)C(N)=O)cc1Cl	> 8.30
N#Cc1cncc(COc2cc(O[C@H]3CCc4c(-c5cccc(OCCCN6CC7(CC(F)C7)C6)c5Cl)cccc43)c(Cl)cc2CN[C@H]2CCC[C@H]2O)c1	> 8.30
N#Cc1cncc(COc2cc(O[C@H]3CCc4c(-c5cccc(OCCCN6CCC(F)CC6)c5Cl)cccc43)c(Cl)cc2CN[C@@H]2CCOC[C@@H]2O)c1	> 8.30
N#Cc1cncc(COc2cc(O[C@H]3CCc4c(-c5cccc(OCCCN6CCC(F)CC6)c5Cl)cccc43)c(Cl)cc2CN2CC[C@@H](F)C2)c1	> 8.30
Cc1c(OCCCN2CCC[C@H](O)C2)cccc1-c1cccc2c1CC[C@@H]2Oc1cc(OCc2cncc(C#N)c2)c(CN[C@H](C(=O)O)[C@@H](C)O)cc1Cl	> 8.30
N#Cc1cncc(COc2cc(O[C@H]3CCc4c(-c5cccc(OCCCN6CC(F)C6)c5Cl)cccc43)c(Cl)cc2CN[C@@H]2CCCC[C@@H]2O)c1	> 8.30
N#Cc1cncc(COc2cc(O[C@H]3CCc4c(-c5cccc(OCCCN6CC7(CC(O)C7)C6)c5Cl)cccc43)c(Cl)cc2CNC[C@@H]2CCC(=O)N2)c1	> 8.30
N#Cc1cncc(COc2cc(O[C@H]3CCc4c(-c5cccc(OCCCN6CC7(CC(O)C7)C6)c5Cl)cccc43)c(Cl)cc2CN[C@@H]2CCC[C@H]2O)c1	> 8.30
